According to ChEMBL document CHEMBL5137070, “N-2-(Phenylamino) Benzamide Derivatives as Dual Inhibitors of COX-2 and Topo I Deter Gastrointestinal Cancers via Targeting Inflammation and Tumor Progression” (J Med Chem, 2022):
Active and inactive are the calls of the source. The calls are words filed in the database; no cut-off is given here.

Assays:
CT26.WT = experiment: Antiproliferative activity against mouse CT26.WT cells assessed as reduction in cell proliferation incubated for 48 hrs by MTT assay; format: functional, cell-based
RKO [1] = experiment: Antiproliferative activity against human RKO cells assessed as reduction in cell proliferation incubated for 48 hrs by MTT assay; format: functional, cell-based
HT-29 = experiment: Antiproliferative activity against human HT-29 cells assessed as reduction in cell proliferation incubated for 48 hrs by MTT assay; format: functional, cell-based; conditions: HT-29, 48 h
HGC-27 = experiment: Antiproliferative activity against human HGC-27 cells assessed as reduction in cell proliferation incubated for 48 hrs by MTT assay; format: functional, cell-based; conditions: HGC-27, 48 h
SGC-7901 = experiment: Antiproliferative activity against human SGC-7901 cells assessed as reduction in cell proliferation incubated for 48 hrs by MTT assay; format: functional, cell-based; conditions: SGC-7901, 48 h
[2] = target: T1, DNA topoisomerase 1 (Homo sapiens) (UniProt P11387); experiment: Inhibition of human topoisomerase I assessed as DNA unwinding using DNA pBR322 as substrate at 2 uM incubated for 30 mins by ethidium bromide staining based agarose gel electrophoresis
T1 sequence (whole entry): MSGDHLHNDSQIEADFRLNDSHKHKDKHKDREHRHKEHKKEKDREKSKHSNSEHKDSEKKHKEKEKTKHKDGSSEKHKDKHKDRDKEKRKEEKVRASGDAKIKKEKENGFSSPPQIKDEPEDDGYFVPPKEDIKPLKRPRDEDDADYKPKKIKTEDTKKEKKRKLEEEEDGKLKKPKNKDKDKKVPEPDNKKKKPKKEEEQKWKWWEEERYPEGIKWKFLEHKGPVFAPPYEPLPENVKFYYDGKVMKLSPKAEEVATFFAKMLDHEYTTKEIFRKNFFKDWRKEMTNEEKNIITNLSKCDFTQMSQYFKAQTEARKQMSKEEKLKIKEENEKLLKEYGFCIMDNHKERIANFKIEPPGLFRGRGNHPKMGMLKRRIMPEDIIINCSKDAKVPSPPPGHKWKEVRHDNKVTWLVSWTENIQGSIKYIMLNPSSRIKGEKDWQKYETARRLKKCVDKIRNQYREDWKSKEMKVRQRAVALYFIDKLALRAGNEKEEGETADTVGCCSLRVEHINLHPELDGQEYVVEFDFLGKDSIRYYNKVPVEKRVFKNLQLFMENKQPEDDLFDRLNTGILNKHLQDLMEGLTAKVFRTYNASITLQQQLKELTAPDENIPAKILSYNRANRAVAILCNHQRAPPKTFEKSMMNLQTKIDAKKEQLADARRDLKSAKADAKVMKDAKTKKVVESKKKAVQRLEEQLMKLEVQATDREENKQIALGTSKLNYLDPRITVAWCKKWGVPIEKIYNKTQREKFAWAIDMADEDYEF

RKO [3] = experiment: Anti-migration activity against human RKO cells assessed as inhibition of cell migration at 0.37 uM and measured after 24 hrs by wound healing assay; format: functional, cell-based
RAW264.7 [4] = experiment: Antiinflammatory activity in mouse RAW264.7 cells assessed as reduction in LPS-induced COX-2 expression at 6.6 uM incubated for 1 hrs followed by LPS stimulation and measured after 24 hrs by western blot analysis; format: functional, cell-based; conditions: time 25.0 hrs
RAW264.7 [5] = experiment: Cytotoxicity against mouse RAW264.7 cells assessed as reduction in cell viability at <=11.11 for 24 hrs by MTT assay; format: toxicity, cell-based; conditions: raw264.7, 24 h

| SMILES | IC50 (CT26.WT) [µM] | IC50 (RKO [1]) [µM] | IC50 (HT-29) [µM] | IC50 (HGC-27) [µM] | IC50 (SGC-7901) [µM] | inhibition [2] [%] | Activity (RKO [3]) | Activity (RAW264.7 [4]) | Activity (RAW264.7 [5]) [%] |
| --- | --- | --- | --- | --- | --- | --- | --- | --- | --- |
| OCc1ccc(O)cc1 [PARAHYDROXYBENZYL ALCOHOL] | > 100 | > 100 | > 100 | > 100 | > 100 |  |  |  |  |
| Cc1c(Cl)cccc1Nc1ccccc1C(=O)NCc1ccccc1O | > 100 | 32.7 | 51.4 | 46.9 | 38 | 15.2 |  |  |  |
| CC[C@@]1(O)C(=O)OCc2c1cc1n(c2=O)Cc2cc3ccccc3nc2-1 [CAMPTOTHECIN] | 0.43 | 0.0617 | 1.37 | 0.166 | 5.8 |  | Active |  |  |
| Cc1c(Cl)cccc1Nc1ccccc1C(=O)NCc1ccc(O)cc1 | 10.5 | 8.32 | 13.5 | 34.2 | 21.1 | 35 |  |  |  |
| Cc1c(Cl)cccc1Nc1ccccc1C(=O)NCc1ccc(O)c(O)c1 | 9.64 | 59.4 | 19.5 | 16.5 | 59.7 | 55.3 |  |  |  |
| Cc1c(Cl)cccc1N(C)c1ccccc1C(=O)NCc1ccc(O)cc1 | > 100 | > 100 | > 100 | 58 | 77.7 | 25.9 |  |  |  |
| Cc1c(Cl)cccc1Nc1ncccc1C(=O)NCc1ccc(O)cc1 | > 100 | 23.7 | 47.3 | 50.2 | 33.9 | 6.87 |  |  |  |
| Cc1c(Cl)cccc1N(C)c1ccccc1C(=O)NCc1ccc(O)c(F)c1 | > 100 | > 100 | 52.5 | 88.1 | 99.9 | 22.3 |  |  |  |
| O=C(NCCc1ccc(O)cc1)c1ccccc1Nc1ccccc1 | 67.8 | > 100 | 44.5 | 92.5 | 60.4 | 13.8 |  |  |  |
| Cc1ccc(Cl)c(Nc2ccccc2C(=O)NCc2ccc(O)cc2)c1Cl | 83.4 | 28.9 | 23.7 | 35.2 | 20.5 | 5.57 |  |  |  |
| O=C(NCc1ccc(O)cc1)c1ccccc1Nc1cccc(Cl)c1 | 38.3 | 24.9 | 43.8 | 26.4 | 32.7 | 26.7 |  |  |  |
| Cc1c(Cl)cccc1Nc1ccccc1C(=O)NCc1ccc(F)cc1 | > 100 | 62.4 | > 100 | 46.4 | 51.8 | 24.7 |  |  |  |
| COc1ccc(NC(=O)c2ccccc2Nc2cccc(Cl)c2C)cc1 | 11 | 3.69 | 5.97 | 2.32 | 5.75 | 2.55 | Active | Active |  |
| Cc1c(Cl)cccc1Nc1ccccc1C(=O)O [TOLFENAMIC ACID] | > 100 | > 100 | > 100 | > 100 | > 100 |  |  |  | > 80 |
| O=C(Nc1ccc(O)cc1)c1ccccc1Nc1ccccc1 | 52.8 | 66.7 | 72.9 | 74.8 | 61.4 | 8.56 |  |  |  |
| Cc1ccc(Nc2cccc(Cl)c2C)c(C(=O)NCc2ccc(O)c(F)c2)c1 | > 100 | 50.6 | 16.2 | 56.8 | 62.1 | 19.7 |  |  |  |
| Cc1c(Cl)cccc1Nc1ccccc1C(=O)NCc1cccc(O)c1 | 8.52 | 6.97 | 33.6 | 2.41 | 8.92 | 37.4 |  |  |  |
| O=C(NCc1ccc(O)cc1)c1ccccc1Nc1ccccc1 | > 100 | 69.9 | 50.9 | 54.8 | 61 | 37.3 |  |  |  |
| Cc1c(Cl)cccc1Oc1ccccc1C(=O)NCc1ccc(O)cc1 | 36.8 | 101 | > 100 | 59.4 | 90.4 | 17.6 |  |  |  |
| Cc1c(Cl)cccc1Nc1ccccc1C(=O)NCc1cccc2c1OCO2 | > 100 | 26.9 | 22.5 | 27.7 | 41.9 | 3.51 |  |  |  |
| Cc1cccc(Nc2ccccc2C(=O)NCc2ccc(O)cc2)c1C | > 100 | 17.4 | 19.7 | 33.1 | 22.1 | 19.3 |  |  |  |
| O=C(NCCCc1ccc(O)cc1)c1ccccc1Nc1ccccc1 | > 100 | > 100 | > 100 | > 100 | > 100 | 0 |  |  |  |
| Cc1c(Cl)cccc1Nc1ccccc1C(=O)NCc1ccc(O)c(F)c1 | 11.6 | 5.23 | 26.3 | 12 | 60.8 | 44.7 |  |  |  |
